Experimental data from PubChem BioAssay AID2060332 (Molecular Pharmacology Branch, DTP, NCI, 2025).
“And” between values parts separate entries of the source, which are not always exact repeats. Identical values can stand only once.

System: LG0567-F671-PDC multi-cell spheroid viability
Experiment: Anticancer human tumor LG0567-F671-PDC patient-derived lung adenocarcinoma cell line growth inhibition [IpAb]
Settings: for viability, T/C: stronger effect = lower value
Outline: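 Spheroids of 60% malignant cells, 25% HUVEC and 15% MSC were exposed to targeted agents combined with ipatasertib or abemaciclib. Doses started at or near clinical Cmax (10 microM when unknown) and fell in half-log steps.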

[1] = curve of first compound, second compound 0.1 µM
[2] = curve of first compound, second compound 0.316 µM
[3] = curve of first compound, second compound 1 µM
[4] = curve of first compound, second compound 3.16 µM
[5] = curve of first compound, second compound 10 µM
[6] = second compound 0.1 µM, first compound 0.0316 µM
[7] = second compound 0.1 µM, first compound 0.1 µM
[8] = second compound 0.1 µM, first compound 0.316 µM
[9] = second compound 0.1 µM, first compound 1 µM
[10] = second compound 0.1 µM, first compound 3.16 µM
[11] = second compound 0.1 µM, first compound 10 µM
[12] = second compound 0.316 µM, first compound 0.0316 µM
[13] = second compound 0.316 µM, first compound 0.1 µM
[14] = second compound 0.316 µM, first compound 0.316 µM
[15] = second compound 0.316 µM, first compound 1 µM
[16] = second compound 0.316 µM, first compound 3.16 µM
[17] = second compound 0.316 µM, first compound 10 µM
[18] = second compound 1 µM, first compound 0.0316 µM
[19] = second compound 1 µM, first compound 0.1 µM
[20] = second compound 1 µM, first compound 0.316 µM
[21] = second compound 1 µM, first compound 1 µM
[22] = second compound 1 µM, first compound 3.16 µM
[23] = second compound 1 µM, first compound 10 µM
[24] = second compound 3.16 µM, first compound 0.0316 µM
[25] = second compound 3.16 µM, first compound 0.1 µM
[26] = second compound 3.16 µM, first compound 0.316 µM
[27] = second compound 3.16 µM, first compound 1 µM
[28] = second compound 3.16 µM, first compound 3.16 µM
[29] = second compound 3.16 µM, first compound 10 µM
[30] = second compound 10 µM, first compound 0.0316 µM
[31] = second compound 10 µM, first compound 0.1 µM
[32] = second compound 10 µM, first compound 0.316 µM
[33] = second compound 10 µM, first compound 1 µM
[34] = second compound 10 µM, first compound 3.16 µM
[35] = second compound 10 µM, first compound 10 µM
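Note: viability read after 7 days of drug exposure.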
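Throughout, for viability, T/C: 100% = DMSO vehicle control luminescence.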

C=CC(=O)N1CCN(c2nc(=O)n(-c3c(C)ccnc3C(C)C)c3nc(-c4c(O)cccc4F)c(F)cc23)C(C)C1 (configuration not stated) + CC(C)NCC(C(=O)N1CCN(c2ncnc3c2C(C)CC3O)CC1)c1ccc(Cl)cc1
IC50 [1]: < 31.6 nM | IC50 [2]: < 31.6 nM | IC50 [3]: < 31.6 nM | IC50 [4]: < 31.6 nM | IC50 [5]: < 31.6 nM | viability, T/C [6]: 20% | viability, T/C [7]: 15.1% | viability, T/C [8]: 15.1% | viability, T/C [9]: 14.7% | viability, T/C [10]: 15.9% | viability, T/C [11]: 16.6% | viability, T/C [12]: 12.9% | viability, T/C [13]: 16.1% | viability, T/C [14]: 15.5% | viability, T/C [15]: 14.8% | viability, T/C [16]: 8.74% | viability, T/C [17]: 9.44% | viability, T/C [18]: 13.8% | viability, T/C [19]: 13.9% | viability, T/C [20]: 13.1% | viability, T/C [21]: 10.5% | viability, T/C [22]: 10.2% | viability, T/C [23]: 8.39% | viability, T/C [24]: 14.9% | viability, T/C [25]: 15.8% | viability, T/C [26]: 11.4% | viability, T/C [27]: 10.6% | viability, T/C [28]: 10.4% | viability, T/C [29]: 10.6% | viability, T/C [30]: 13.5% | viability, T/C [31]: 11% | viability, T/C [32]: 10.1% | viability, T/C [33]: 10% | viability, T/C [34]: 12.5% | viability, T/C [35]: 9.01%

C=CCn1c(=O)c2cnc(Nc3ccc(N4CCN(C)CC4)cc3)nc2n1-c1cccc(C(C)(C)O)n1 + CC(C)NCC(C(=O)N1CCN(c2ncnc3c2C(C)CC3O)CC1)c1ccc(Cl)cc1
IC50 [1]: 479 nM | IC50 [2]: 803 nM | IC50 [3]: 626 nM | IC50 [4]: 1050 nM | IC50 [5]: 646 nM | viability, T/C [6]: 80.7% | viability, T/C [7]: 78.5% | viability, T/C [8]: 52.1% | viability, T/C [9]: 44.6% | viability, T/C [10]: 34.6% | viability, T/C [11]: 33.4% | viability, T/C [12]: 75% | viability, T/C [13]: 73.1% | viability, T/C [14]: 53.3% | viability, T/C [15]: 50.5% | viability, T/C [16]: 36.2% | viability, T/C [17]: 23.6% | viability, T/C [18]: 69.6% | viability, T/C [19]: 84.6% | viability, T/C [20]: 65.2% | viability, T/C [21]: 37.8% | viability, T/C [22]: 37.6% | viability, T/C [23]: 20.2% | viability, T/C [24]: 79.1% | viability, T/C [25]: 83% | viability, T/C [26]: 59.1% | viability, T/C [27]: 50.8% | viability, T/C [28]: 36.9% | viability, T/C [29]: 19.5% | viability, T/C [30]: 72.8% | viability, T/C [31]: 76% | viability, T/C [32]: 51.7% | viability, T/C [33]: 49.1% | viability, T/C [34]: 31.9% | viability, T/C [35]: 26.8%

CC(C)(C)c1cnc(CSc2cnc(NC(=O)C3CCNCC3)s2)o1
viability, T/C (compound 0.00949 µM): 110% and 111% | viability, T/C (compound 0.03 µM): 113% and 95.4% | viability, T/C (compound 0.0949 µM): 97.6% and 73.8% | viability, T/C (compound 0.3 µM): 6.76% and 3.49% | viability, T/C (compound 0.949 µM): 2.03% and 1.44% | viability, T/C (compound 3 µM): 0.9% and 0.89% | IC50 (curve of compound): 173 nM and 140 nM

CC1(C)CCC(CN2CCN(c3ccc(C(=O)NS(=O)(=O)c4ccc(NCC5CCOCC5)c([N+](=O)[O-])c4)c(Oc4cnc5[nH]ccc5c4)c3)CC2)=C(c2ccc(Cl)cc2)C1 + CC(C)NCC(C(=O)N1CCN(c2ncnc3c2C(C)CC3O)CC1)c1ccc(Cl)cc1
IC50 [1]: 6900 nM | IC50 [2]: 5510 nM | IC50 [3]: 5380 nM | IC50 [4]: 5360 nM | IC50 [5]: 4760 nM | viability, T/C [6]: 78.6% | viability, T/C [7]: 86.3% | viability, T/C [8]: 93.8% | viability, T/C [9]: 88.6% | viability, T/C [10]: 93.9% | viability, T/C [11]: 31.9% | viability, T/C [12]: 50% | viability, T/C [13]: 91.5% | viability, T/C [14]: 81.6% | viability, T/C [15]: 55.8% | viability, T/C [16]: 83.8% | viability, T/C [17]: 25.9% | viability, T/C [18]: 63.5% | viability, T/C [19]: 82.9% | viability, T/C [20]: 88.4% | viability, T/C [21]: 76.2% | viability, T/C [22]: 70.4% | viability, T/C [23]: 26.1% | viability, T/C [24]: 71.5% | viability, T/C [25]: 80.1% | viability, T/C [26]: 79.9% | viability, T/C [27]: 62.2% | viability, T/C [28]: 72.7% | viability, T/C [29]: 23.6% | viability, T/C [30]: 77.3% | viability, T/C [31]: 79.5% | viability, T/C [32]: 76.2% | viability, T/C [33]: 79.9% | viability, T/C [34]: 72.8% | viability, T/C [35]: 8.73%

Cn1ncnc1[C@H]1c2n[nH]c(=O)c3cc(F)cc(c23)N[C@@H]1c1ccc(F)cc1 + CCN1CCN(Cc2ccc(Nc3ncc(F)c(-c4cc(F)c5nc(C)n(C(C)C)c5c4)n3)nc2)CC1
IC50 (curve of first compound, second compound 0.01 µM): 71.7 nM | IC50 (curve of first compound, second compound 0.0316 µM): 18.2 nM | IC50 [1]: 11.2 nM | IC50 [2]: 22 nM | IC50 [3]: 5.45 nM | viability, T/C (second compound 0.01 µM, first compound 0.000316 µM): 94.2% | viability, T/C (second compound 0.01 µM, first compound 0.001 µM): 89.6% | viability, T/C (second compound 0.01 µM, first compound 0.00316 µM): 64.2% | viability, T/C (second compound 0.01 µM, first compound 0.01 µM): 76.7% | viability, T/C (second compound 0.01 µM, first compound 0.0316 µM): 64.9% | viability, T/C (second compound 0.01 µM, first compound 0.1 µM): 40.9% | viability, T/C (second compound 0.0316 µM, first compound 0.000316 µM): 64% | viability, T/C (second compound 0.0316 µM, first compound 0.001 µM): 81.5% | viability, T/C (second compound 0.0316 µM, first compound 0.00316 µM): 69.3% | viability, T/C (second compound 0.0316 µM, first compound 0.01 µM): 46.1% | viability, T/C (second compound 0.0316 µM, first compound 0.0316 µM): 49.8% | viability, T/C (second compound 0.0316 µM, first compound 0.1 µM): 24.7% | viability, T/C (second compound 0.1 µM, first compound 0.000316 µM): 63.2% | viability, T/C (second compound 0.1 µM, first compound 0.001 µM): 75.8% | viability, T/C (second compound 0.1 µM, first compound 0.00316 µM): 63.1% | viability, T/C (second compound 0.1 µM, first compound 0.01 µM): 52.8% | viability, T/C [6]: 29.8% | viability, T/C [7]: 30.4% | viability, T/C (second compound 0.316 µM, first compound 0.000316 µM): 63.5% | viability, T/C (second compound 0.316 µM, first compound 0.001 µM): 72.2% | viability, T/C (second compound 0.316 µM, first compound 0.00316 µM): 66.5% | viability, T/C (second compound 0.316 µM, first compound 0.01 µM): 52.1% | viability, T/C [12]: 49.2% | viability, T/C [13]: 30% | viability, T/C (second compound 1 µM, first compound 0.000316 µM): 61.9% | viability, T/C (second compound 1 µM, first compound 0.001 µM): 67.4% | viability, T/C (second compound 1 µM, first compound 0.00316 µM): 56.1% | viability, T/C (second compound 1 µM, first compound 0.01 µM): 43.3% | viability, T/C [18]: 32.8% | viability, T/C [19]: 40.3%

Cn1nccc1Nc1nccc(-c2ccn(C(CO)c3ccc(Cl)c(F)c3)c(=O)c2)n1 (configuration not stated) + CC(C)NCC(C(=O)N1CCN(c2ncnc3c2C(C)CC3O)CC1)c1ccc(Cl)cc1
IC50 [1]: 128 nM | IC50 [2]: 79.9 nM | IC50 [3]: 152 nM | IC50 [4]: 160 nM | IC50 [5]: 192 nM | viability, T/C [6]: 60.9% | viability, T/C [7]: 51.7% | viability, T/C [8]: 44.4% | viability, T/C [9]: 34.2% | viability, T/C [10]: 29.1% | viability, T/C [11]: 23.9% | viability, T/C [12]: 62.1% | viability, T/C [13]: 45.6% | viability, T/C [14]: 36.7% | viability, T/C [15]: 32.7% | viability, T/C [16]: 26% | viability, T/C [17]: 21.3% | viability, T/C [18]: 62.4% | viability, T/C [19]: 52.9% | viability, T/C [20]: 43.8% | viability, T/C [21]: 25.9% | viability, T/C [22]: 20.2% | viability, T/C [23]: 15.9% | viability, T/C [24]: 67.2% | viability, T/C [25]: 58% | viability, T/C [26]: 38.6% | viability, T/C [27]: 31.7% | viability, T/C [28]: 19.3% | viability, T/C [29]: 9.79% | viability, T/C [30]: 60.1% | viability, T/C [31]: 57.4% | viability, T/C [32]: 44.8% | viability, T/C [33]: 27.2% | viability, T/C [34]: 16.7% | viability, T/C [35]: 9.92%
